From the NIST ThermoML archive (doi:10.1021/acs.jced.6b00640)
Numbers after ± are expanded uncertainties.

Test: refractive index (Na D-line) (dimensionless); xn = mol fraction of the nth substance listed
Conditions: 100 kPa, Liquid, Standard Abbe refractometry

CCOC(=O)CCC(=O)OCC [diethyl butanedioate] + CCCC(=O)OCC
refractive index
Conditions | x2 = 0.0999 | x2 = 0.2 | x2 = 0.3003 | x2 = 0.3999 | x2 = 0.5 | x2 = 0.5997 | x2 = 0.7 | x2 = 0.7999 | x2 = 0.8999
288.15 K | 1.4198 ± 0.0014 | 1.4177 ± 0.0014 | 1.4154 ± 0.0014 | 1.413 ± 0.0014 | 1.4104 ± 0.0014 | 1.4076 ± 0.0014 | 1.4048 ± 0.0014 | 1.4016 ± 0.0014 | 1.3986 ± 0.0014
293.15 K | 1.4176 ± 0.0014 | 1.4155 ± 0.0014 | 1.4132 ± 0.0014 | 1.4107 ± 0.0014 | 1.4081 ± 0.0014 | 1.4053 ± 0.0014 | 1.4024 ± 0.0014 | 1.3992 ± 0.0014 | 1.3961 ± 0.0014
298.15 K | 1.4154 ± 0.0014 | 1.4132 ± 0.0014 | 1.4109 ± 0.0014 | 1.4084 ± 0.0014 | 1.4058 ± 0.0014 | 1.403 ± 0.0014 | 1.4 ± 0.0014 | 1.3968 ± 0.0014 | 1.3937 ± 0.0014
303.15 K | 1.4132 ± 0.0014 | 1.411 ± 0.0014 | 1.4086 ± 0.0014 | 1.4061 ± 0.0014 | 1.4035 ± 0.0014 | 1.4006 ± 0.0014 | 1.3976 ± 0.0014 | 1.3944 ± 0.0014 | 1.3912 ± 0.0014
308.15 K | 1.411 ± 0.0014 | 1.4088 ± 0.0014 | 1.4063 ± 0.0014 | 1.4038 ± 0.0014 | 1.4011 ± 0.0014 | 1.3982 ± 0.0014 | 1.3952 ± 0.0014 | 1.392 ± 0.0014 | 1.3888 ± 0.0014
313.15 K | 1.4088 ± 0.0014 | 1.4065 ± 0.0014 | 1.4041 ± 0.0014 | 1.4015 ± 0.0014 | 1.3988 ± 0.0014 | 1.3959 ± 0.0014 | 1.3928 ± 0.0014 | 1.3895 ± 0.0014 | 1.3862 ± 0.0014
318.15 K | 1.4066 ± 0.0014 | 1.4043 ± 0.0014 | 1.4018 ± 0.0014 | 1.3992 ± 0.0014 | 1.3964 ± 0.0014 | 1.3935 ± 0.0014 | 1.3904 ± 0.0014 | 1.387 ± 0.0014 | 1.3837 ± 0.0014
323.15 K | 1.4044 ± 0.0014 | 1.402 ± 0.0014 | 1.3995 ± 0.0014 | 1.3968 ± 0.0014 | 1.394 ± 0.0014 | 1.391 ± 0.0014 | 1.3878 ± 0.0014 | 1.3844 ± 0.0014 | 1.3809 ± 0.0014
